Assay results from patent EP3373009A1, “FLUORESCENT COMPOUNDS FOR THE DETECTION OF MALIGNANT MELANOMA” (Karlsruher Institut für Technologie, priority 2017, dated 2018).

How the values were obtained:
[1] = tested on: MEB4 cells; test: Cellular uptake of the MSF in 2D cell culture, evaluated by CLSM (Example 1); format: cell-based, murine; settings: 20 µM in DMF, 5 hrs
Description: (§1) Two-dimensional cell cultures were treated with the fluorescent compound (I-1) as the MSF, represented by the following formula: [drawing 22]
(§2) Diverse cell lines as well as primary skin cells such as U2OS, SHSY, A459, H4, Hek293, HepG2, HCT116, U251, MCF-7, Ratfib, HUVEC, Fibroblasts, and HeLa were treated with the MSF at a concentration of 20 µM in DMF (dimethylformamide) for 5 hrs and subsequently evaluated by means of CLSM (confocal laser scanning microscopy).
(§3) In addition, murine (MEB4) as well as human (SK-Mel28) malignant melanoma cells were treated with the MSF under the same conditions.
(§4) The experimental procedure was similar to that of Example 2, as described below.
(§5) The aforementioned cells were seeded in an ibidi® µ-slide 8 well in a density of 2x10^5/mL and cultured for two days to confluency, before being treated with the fluorescent compounds in a concentration of 20 µM in DMF (dimethylformamide). After an incubation time of 5 hrs, the adherent cell layers were washed three times with PBS (phosphate buffered saline) and the nuclei were stained with Hoechst 33342 (Invitrogen, 0.5 µg/mL, 20 min). During the microscopic studies (Leica TCS-SP-5, inverted microscope), the fluorescent compounds were excited using an Ar-laser at 488 nm. Excitation of the Hoechst dye was accomplished with an UV-Laser at 351 and 364 nm. […]

[2] = tested on: HeLa cells; test: Cellular uptake of the MSF in 2D cell culture, evaluated by CLSM (Example 1), non-affected control cells; format: cell-based, human; settings: 20 µM in DMF, 5 hrs
Description: as §1, §2, §3, §4, §5

[3] = tested on: human melanoma cells SK-Mel28; test: Cellular uptake of fluorescent compounds by CLSM with fluorescence quantification (Example 2, Fig. 3); format: cell-based; settings: 20 µM in DMF, 5 hrs; for fluorescence signal: excitation 488 nm, background subtracted; for difference in the uptake between SK-Mel28 and HeLa cells: SK-Mel28 versus HeLa (negative control)
Description: The cellular uptake of the fluorescent compounds according to the present invention was studied by treatment of human melanoma cells SK-Mel28 and HeLa cells (human cervix carcinoma cell line as a negative control, common model cell line) and their investigation via CLSM (confocal laser scanning microscopy).
The aforementioned cells were seeded in an ibidi® µ-slide 8 well in a density of 2x10^5/mL and cultured for two days to confluency, before being treated with the fluorescent compounds in a concentration of 20 µM in DMF (dimethylformamide). After an incubation time of 5 hrs, the adherent cell layers were washed three times with PBS (phosphate buffered saline) and the nuclei were stained with Hoechst 33342 (Invitrogen, 0.5 µg/mL, 20 min). During the microscopic studies (Leica TCS-SP-5, inverted microscope), the fluorescent compounds were excited using an Ar-laser at 488 nm. Excitation of the Hoechst dye was accomplished with an UV-Laser at 351 and 364 nm. Due to the overlap of the emission spectra of both dyes, a sequential mode was chosen for recording the cell images.
The resulting cell images were analyzed in terms of fluorescence quantification at 488 nm excitation using the software imaged 1.50i (Wayne Rasband, National Institutes of Health, USA).
From each cell image, five cells were selected as regions of interest and the related fluorescence signals were quantified (mean value and standard deviation). Additionally, three cell-free regions were selected in each cell image as background and the resulting background signal from these regions was subtracted from the cell signal.

Row | Structure (SMILES) | fluorescence generated by the MSF in CLSM images ([1]; MEB4 cells, Fig. 2) | uptake by the cells ([1]; MEB4 malignant melanoma cells) | fluorescence originating from the MSF in CLSM images ([2]; HeLa cells, Fig. 1) | uptake by the cells ([2]; HeLa non-affected cells) | fluorescence signal [3] | difference in the uptake between SK-Mel28 and HeLa cells [3]
1 | O=C(c1ccccc1-c1c2ccc(=O)cc-2oc2cc(O)ccc12)N1CCN(C(=O)C2(F)C#CCCCCC2)CC1 (stereo not shown) [I-1] | can be recognized throughout the cytoplasm | effectively been taken up | no fluorescence apparent | not significantly been taken up | high fluorescence signal | large difference in the uptake
2 | O=C(c1ccc(OC2C#CCCCCC2)cc1)N1CCN(C(=O)c2ccccc2-c2c3ccc(=O)cc-3oc3cc(O)ccc23)CC1 (stereo not shown) [I-14] | – | – | – | – | slightly weaker fluorescence signals | significant differences in the uptake
3 | O=C(OCC1CSCC#CCO1)N1CCN(C(=O)c2ccccc2-c2c3ccc(=O)cc-3oc3cc(O)ccc23)CC1 (stereo not shown) [I-17] | – | – | – | – | slightly weaker fluorescence signals | significant differences in the uptake
4 | O=C(c1ccccc1-c1c2ccc(=O)cc-2oc2cc(O)ccc12)N1CCN(C(=O)C23CC4CC(CC(C4)C2)C3)CC1 [I-18] | – | – | – | – | slightly weaker fluorescence signals | significant differences in the uptake
5 | O=C(c1ccc2[nH]ccc2c1)N1CCN(C(=O)c2ccccc2-c2c3ccc(=O)cc-3oc3cc(O)ccc23)CC1 [I-20] | – | – | – | – | slightly weaker fluorescence signals | significant differences in the uptake
6 | O=C(NCCCCNC(=O)C1(F)C#CCCCCC1)c1ccc(-c2c3ccc(=O)cc-3oc3cc(O)ccc23)c(C(=O)O)c1 (stereo not shown) [I-25] | – | – | – | – | slightly weaker fluorescence signals | significant differences in the uptake
